Target: T1, GABAB receptor (GABABR1a/GABABR2) (Homo sapiens, UniProt O75899+Q9UBS5)
T1 construct: expressed in transfected cells; membranes prepared from the cells
Experiment: [35S]-GTPγS binding assay, potency of positive allosteric modulator on GABA EC50
Assay type: biochemical
Details: potency of the positive allosteric modulator (log EC50 for GABA plotted against log modulator concentration)
Source text: GABABR1a and GABABR2 were cloned from human brain cDNA and subcloned into pCI-Neo (Promega) and pALTER-1 (Promega), respectively. A GABABR1a-Gαqi5 fusion protein expression vector was constructed using the pCI-Neo-GABABR1a cDNA plasmid and pLEC1-Gαqi5 (Molecular Devices, Calif.). In order to make the Gαqi5 pertussis toxin insensitive, Cys356 was mutated to Gly using standard PCR methodology with the primers 5′-[…]-3′ (forward) and 5′-GCGGCCG […]-3′ (reverse). The Gαqi5mut cDNA was ligated into the BamHI and NotI sites of pcDNA3.0 (Invitrogen). The GABABR1a coding sequence was amplified by PCR from pCI-Neo-GABABR1a using the primers, 5′-[…]-3′ (forward) and 5′-[…]-3′ (reverse) and subcloned into the BamHI site of pcDNA3.0-Gαqi5mut.
For generation of stable cell lines, CHO-K1 cells were grown in Nut mix F-12 (Ham) media supplemented with 10% FBS, 100 U/ml Penicillin and 100 μg/ml Streptomycin at 37° C. in a humidified CO2-incubator. […]
[^35S]-GTPγS binding assays were performed at 30° C. for 45 min in membrane buffer (100 mM NaCl, […], 1 mM EDTA, 50 mM HEPES, pH 7.4) containing 0.025 μg/μl of membrane protein (prepared from the cell lines described above) with 0.01% bovine serum albumin (fatty acid free), 10 μM GDP, 100 μM DTT and 0.53 nM [^35S]-GTPγS (Amersham-Pharmacia Biotech) in a final volume of 200 μl. Non-specific binding was determined in the presence of 20 μM GTPγS. […]

T1 sequence (Q9UBS5 15-961 limits assumed): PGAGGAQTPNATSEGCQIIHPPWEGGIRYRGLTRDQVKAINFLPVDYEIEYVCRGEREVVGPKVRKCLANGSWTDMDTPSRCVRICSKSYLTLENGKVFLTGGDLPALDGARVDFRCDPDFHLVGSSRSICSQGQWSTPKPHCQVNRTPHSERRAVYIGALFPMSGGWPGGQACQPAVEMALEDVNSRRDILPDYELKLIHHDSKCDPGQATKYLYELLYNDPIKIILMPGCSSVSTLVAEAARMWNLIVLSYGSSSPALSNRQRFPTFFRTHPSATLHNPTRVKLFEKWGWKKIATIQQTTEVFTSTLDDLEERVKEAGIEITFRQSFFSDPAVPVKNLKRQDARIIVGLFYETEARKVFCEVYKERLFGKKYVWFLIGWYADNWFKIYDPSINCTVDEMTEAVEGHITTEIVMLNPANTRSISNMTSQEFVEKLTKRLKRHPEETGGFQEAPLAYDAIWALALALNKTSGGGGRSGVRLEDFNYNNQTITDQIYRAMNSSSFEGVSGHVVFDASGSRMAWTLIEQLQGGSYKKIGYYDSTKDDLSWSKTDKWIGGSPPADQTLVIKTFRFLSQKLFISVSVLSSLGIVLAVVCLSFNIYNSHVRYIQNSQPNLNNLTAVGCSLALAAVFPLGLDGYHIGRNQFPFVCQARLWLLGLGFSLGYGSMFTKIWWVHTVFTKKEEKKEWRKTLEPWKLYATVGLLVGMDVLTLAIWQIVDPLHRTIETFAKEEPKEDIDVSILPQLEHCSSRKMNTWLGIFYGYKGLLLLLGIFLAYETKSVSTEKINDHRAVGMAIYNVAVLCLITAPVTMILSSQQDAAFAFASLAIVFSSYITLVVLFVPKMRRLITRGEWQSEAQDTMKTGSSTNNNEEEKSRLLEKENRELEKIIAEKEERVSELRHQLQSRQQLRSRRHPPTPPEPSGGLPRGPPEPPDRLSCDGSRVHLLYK
T1 sequence (O75899 42-941): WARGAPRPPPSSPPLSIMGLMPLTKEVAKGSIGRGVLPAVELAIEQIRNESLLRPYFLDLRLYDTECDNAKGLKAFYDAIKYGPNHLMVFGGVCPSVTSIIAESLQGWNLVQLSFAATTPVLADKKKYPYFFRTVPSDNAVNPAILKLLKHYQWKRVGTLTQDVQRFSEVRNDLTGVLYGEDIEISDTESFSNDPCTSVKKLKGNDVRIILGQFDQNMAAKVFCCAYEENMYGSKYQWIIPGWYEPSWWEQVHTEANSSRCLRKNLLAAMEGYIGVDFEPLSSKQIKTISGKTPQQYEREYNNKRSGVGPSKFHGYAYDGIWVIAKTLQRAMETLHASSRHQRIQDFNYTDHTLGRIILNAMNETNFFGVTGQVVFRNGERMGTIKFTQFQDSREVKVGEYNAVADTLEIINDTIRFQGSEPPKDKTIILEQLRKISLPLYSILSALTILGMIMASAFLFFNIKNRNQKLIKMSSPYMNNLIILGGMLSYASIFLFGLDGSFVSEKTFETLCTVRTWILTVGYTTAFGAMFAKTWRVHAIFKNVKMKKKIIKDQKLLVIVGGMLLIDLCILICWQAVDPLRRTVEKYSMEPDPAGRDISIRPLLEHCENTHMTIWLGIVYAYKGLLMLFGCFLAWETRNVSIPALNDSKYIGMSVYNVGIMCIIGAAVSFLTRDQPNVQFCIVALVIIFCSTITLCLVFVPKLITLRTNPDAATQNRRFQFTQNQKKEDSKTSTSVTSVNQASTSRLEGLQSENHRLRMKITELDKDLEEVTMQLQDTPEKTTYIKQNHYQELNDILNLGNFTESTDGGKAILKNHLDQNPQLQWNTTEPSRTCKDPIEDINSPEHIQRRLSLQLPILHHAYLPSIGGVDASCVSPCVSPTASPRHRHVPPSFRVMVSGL

Structure (SMILES) | EC50 [µM]
CCCc1nc(NC(=O)C2COc3ccccc3O2)c(C(=O)OC(C)(C)C)n1CC(C)C (centres unmarked) [Example 21, Tert-butyl 4-[(2,3-dihydro-1,4-benzodioxin-2-ylcarbonyl)amino]-1-isobutyl-2-propyl-1H-imidazole-5-carboxylate] | 3.68
CCCc1nc(NC(=O)C2COc3ccccc3O2)c(C(=O)OCC)n1CC(C)C (centres unmarked) [Example 25, Ethyl 4-[(2,3-dihydro-1,4-benzodioxin-2-ylcarbonyl)amino]-1-isobutyl-2-propyl-1H-imidazole-5-carboxylate] | 5.54

From patent US20080312305A1, “Imidazoles as Gaba- B Receptor Modulators” (priority 2005, published 2008)
